Test results taken from the NIST ThermoML archive (doi:10.1016/j.jct.2008.09.018).
± gives the expanded uncertainty stated by the source.

Experiment: xn = mol fraction of the nth substance listed
Conditions: 101 kPa, Liquid; for speed of sound: Pulse-echo method; for viscosity: Capillary tube (Ostwald / Ubbelohde) method; for mass density: Vibrating tube method

CCCCCCCCCO [nonan-1-ol] + OCCO
Conditions	mass density [kg/m3]	speed of sound [m/s]	viscosity [mPa·s]
293.15 K, x2 = 0	–	1381.6 ± 1.6	–
293.15 K, x2 = 0.1002	–	1383.9 ± 1.6	–
293.15 K, x2 = 0.1979	–	1387.2 ± 1.5	–
293.15 K, x2 = 0.2964	–	1391.9 ± 1.5	–
293.15 K, x2 = 0.3641	–	1396.2 ± 1.5	–
293.15 K, x2 = 0.4533	–	1403.7 ± 1.5	–
293.15 K, x2 = 0.5432	–	1414.2 ± 1.4	–
293.15 K, x2 = 0.6441	–	1431.5 ± 1.4	–
293.15 K, x2 = 0.7517	–	1460.2 ± 1.5	–
293.15 K, x2 = 0.9308	–	1571.1 ± 1.5	–
298.15 K, x2 = 0	824.48 ± 0.25	1364.4 ± 1.6	9.494 ± 0.079
298.15 K, x2 = 0.1002	833.41 ± 0.24	1366.8 ± 1.6	9.581 ± 0.079
298.15 K, x2 = 0.1979	843.96 ± 0.23	1370.3 ± 1.5	10.01 ± 0.081
298.15 K, x2 = 0.2964	856.32 ± 0.22	1375.2 ± 1.5	10.67 ± 0.084
298.15 K, x2 = 0.3641	866.44 ± 0.21	1379.8 ± 1.5	11.26 ± 0.088
298.15 K, x2 = 0.4533	881.71 ± 0.21	1387.6 ± 1.4	12.22 ± 0.094
298.15 K, x2 = 0.5432	900.44 ± 0.2	1398.4 ± 1.4	13.41 ± 0.1
298.15 K, x2 = 0.6441	926.38 ± 0.19	1416.2 ± 1.4	15.09 ± 0.11
298.15 K, x2 = 0.701	944.22 ± 0.18	–	–
298.15 K, x2 = 0.7517	963.14 ± 0.21	1445.4 ± 1.4	17.32 ± 0.12
298.15 K, x2 = 0.9308	1055.33 ± 0.29	1558.5 ± 1.4	19.28 ± 0.13
303.15 K, x2 = 0	821.05 ± 0.25	1347.4 ± 1.6	7.994 ± 0.068
303.15 K, x2 = 0.1002	830.02 ± 0.23	1350 ± 1.6	8.014 ± 0.067
303.15 K, x2 = 0.1979	840.61 ± 0.22	1353.6 ± 1.5	8.359 ± 0.069
303.15 K, x2 = 0.2964	852.92 ± 0.21	1358.8 ± 1.5	8.897 ± 0.072
303.15 K, x2 = 0.3641	863 ± 0.21	1363.5 ± 1.5	9.37 ± 0.075
303.15 K, x2 = 0.4533	878.3 ± 0.2	1371.5 ± 1.4	10.14 ± 0.08
303.15 K, x2 = 0.5432	896.94 ± 0.19	1382.7 ± 1.4	11.09 ± 0.086
303.15 K, x2 = 0.6441	922.82 ± 0.18	1400.8 ± 1.4	12.4 ± 0.095
303.15 K, x2 = 0.701	940.61 ± 0.17	–	–
303.15 K, x2 = 0.7517	959.57 ± 0.17	1430.7 ± 1.4	14.12 ± 0.11
303.15 K, x2 = 0.9308	1051.63 ± 0.17	1545.7 ± 1.4	15.47 ± 0.12
308.15 K, x2 = 0	817.57 ± 0.25	1330.5 ± 1.6	6.713 ± 0.057
308.15 K, x2 = 0.1002	826.58 ± 0.24	1333.2 ± 1.6	6.801 ± 0.057
308.15 K, x2 = 0.1979	837.18 ± 0.22	1337.1 ± 1.5	7.044 ± 0.058
308.15 K, x2 = 0.2964	849.41 ± 0.21	1342.4 ± 1.5	7.487 ± 0.06
308.15 K, x2 = 0.3641	859.49 ± 0.21	1347.3 ± 1.5	7.872 ± 0.063
308.15 K, x2 = 0.4533	874.74 ± 0.2	1355.6 ± 1.4	8.493 ± 0.067
308.15 K, x2 = 0.5432	893.37 ± 0.19	1367.1 ± 1.4	9.257 ± 0.071
308.15 K, x2 = 0.6441	919.23 ± 0.18	1385.6 ± 1.4	10.31 ± 0.078
308.15 K, x2 = 0.701	937.01 ± 0.17	–	–
308.15 K, x2 = 0.7517	956 ± 0.17	1416.1 ± 1.4	11.66 ± 0.087
308.15 K, x2 = 0.9308	1048.12 ± 0.17	1532.9 ± 1.4	12.67 ± 0.094
313.15 K, x2 = 0	814.19 ± 0.25	1313.6 ± 1.6	5.657 ± 0.05
313.15 K, x2 = 0.1002	823.15 ± 0.23	1316.5 ± 1.5	5.782 ± 0.049
313.15 K, x2 = 0.1979	833.73 ± 0.22	1320.6 ± 1.5	5.984 ± 0.05
313.15 K, x2 = 0.2964	845.93 ± 0.21	1326.3 ± 1.5	6.352 ± 0.052
313.15 K, x2 = 0.3641	855.98 ± 0.2	1331.3 ± 1.5	6.667 ± 0.054
313.15 K, x2 = 0.4533	871.22 ± 0.19	1339.8 ± 1.4	7.176 ± 0.057
313.15 K, x2 = 0.5432	889.84 ± 0.18	1351.6 ± 1.4	7.796 ± 0.061
313.15 K, x2 = 0.6441	915.68 ± 0.17	1370.4 ± 1.4	8.65 ± 0.067
313.15 K, x2 = 0.701	933.39 ± 0.17	–	–
313.15 K, x2 = 0.7517	952.37 ± 0.16	1401.6 ± 1.3	9.722 ± 0.077
313.15 K, x2 = 0.9308	1044.52 ± 0.18	1520.3 ± 1.3	10.47 ± 0.086
